Measurements: US10428104B2, “Substituted nucleoside derivatives useful as anticancer agents” (Pfizer Inc., priority 2015, dated 2019)

Legend:
[1] = target: PRMT5/MEP50 protein complex (Homo sapiens (Human), UniProt O14744); test: PRMT5 biochemical assay (3H-SAM methylation of H4(1-21) peptide, filter plate scintillation counting); conditions: PRMT5 enzyme inhibition; 10 nM PRMT5/MEP50 complex, 200 nM H4(1-21) peptide, 1 uM SAM, 25 minute incubation at room temperature
In short: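 Flag-PRMT5/MEP50 was co-expressed in Sf21 cells and Flag-affinity purified. Reactions used 10 nM complex, 200 nM H4(1-21) peptide and 1 uM 3H-SAM (final) in 50 mM Tris pH 8.5, 50 mM NaCl, 5 mM MgCl2, 1 mM EDTA and 1 mM TCEP, run 25 min at room temperature. Reactions were TCA-stopped, filter-captured and scintillation-counted; IC50 came from a 4-parameter fit.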

[2] = system: A549 lung adenocarcinoma cells; test: A549 proliferation assay (Cell Titer Glo, 7 days); type: cell-based; conditions: Homo sapiens, 168 h, 7 days with compound, cell viability by Cell Titer Glo (ATP)
Procedure: A549 lung adenocarcinoma cells (American Type CuIture Collection) were maintained in DMEM growth media (Life Technologies) supplemented with 10% v/v heat inactivated fetal bovine serum (Sigma) and cultured at 37° C., 5% CO2. Exponentially growing A549 cells were plated in 96-well black tissue culture treated plates (Corning) at a density of 2500 cells/ml in a volume of 100 μl culture media and allowed to adhere overnight at 37° C., 5% CO2. The following day, compound plates were prepared by making nine-point 3.3-fold dilutions in DMSO with a top concentration of 10 mM. Compounds were further diluted in culture media and 11 μl was added to the cells (final top assay concentration was 10 μM and DMSO was […]). Cells were incubated with compound at 37° C., 5% CO2 for 7 days with media and compound replacement on day 4. Cell viability was assayed on Day 7 by adding 100 μl Cell Titer Glo (Promega) reagent to the plate to measure the amount of ATP present in the cells. Luminescence was read using the Envision 2104 Multilabel Reader (Perkin Elmer).
Results for the A549 proliferation assay of examples are summarized in Table 2, shown as IC50 values in μM.

PRMT5/MEP50 protein complex, sequence (O14744 other isoform, or with tags, fused parts or gaps): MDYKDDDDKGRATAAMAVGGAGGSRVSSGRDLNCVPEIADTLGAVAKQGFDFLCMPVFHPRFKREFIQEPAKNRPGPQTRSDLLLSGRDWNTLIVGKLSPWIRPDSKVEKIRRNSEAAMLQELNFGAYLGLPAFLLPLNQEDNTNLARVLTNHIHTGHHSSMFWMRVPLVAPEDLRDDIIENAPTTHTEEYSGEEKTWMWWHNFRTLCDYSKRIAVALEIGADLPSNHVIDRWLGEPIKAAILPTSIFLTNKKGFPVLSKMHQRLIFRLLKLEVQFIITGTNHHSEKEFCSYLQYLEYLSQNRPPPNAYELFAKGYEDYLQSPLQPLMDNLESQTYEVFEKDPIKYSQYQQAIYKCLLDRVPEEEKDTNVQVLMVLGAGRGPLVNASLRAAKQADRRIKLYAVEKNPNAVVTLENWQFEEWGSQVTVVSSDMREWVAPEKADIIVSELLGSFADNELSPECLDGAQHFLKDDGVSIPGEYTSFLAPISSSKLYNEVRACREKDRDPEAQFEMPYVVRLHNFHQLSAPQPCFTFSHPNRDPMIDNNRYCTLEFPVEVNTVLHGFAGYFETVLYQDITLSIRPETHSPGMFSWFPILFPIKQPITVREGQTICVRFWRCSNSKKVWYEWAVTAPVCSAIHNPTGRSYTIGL
PRMT5/MEP50 protein complex, sequence (Q9BQA1 whole entry partner): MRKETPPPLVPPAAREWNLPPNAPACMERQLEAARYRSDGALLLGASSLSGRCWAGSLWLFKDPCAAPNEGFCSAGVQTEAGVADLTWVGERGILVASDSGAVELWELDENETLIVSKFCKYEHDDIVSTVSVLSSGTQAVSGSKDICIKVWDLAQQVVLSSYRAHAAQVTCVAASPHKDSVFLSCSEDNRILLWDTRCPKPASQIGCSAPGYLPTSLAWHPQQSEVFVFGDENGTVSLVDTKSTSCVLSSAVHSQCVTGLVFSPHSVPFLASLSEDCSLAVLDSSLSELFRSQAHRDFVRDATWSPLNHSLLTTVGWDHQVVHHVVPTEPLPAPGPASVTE

IC50 [1] [nM] | IC50 [2] [nM] | Compound
18 | 250 | Cc1ncnc2c1c(F)cn2[C@@H]1O[C@H]([C@H](O)c2ccc(F)cc2)[C@@H](O)[C@H]1O [Example 98, (2R,3R,4S,5R)-2-(5-fluoro-4-methyl-7H-pyrrolo[2,3-d]pyrimidin-7-yl)-5-((R)-(4-fluorophenyl)(hydroxy)methyl)tetrahydrofuran-3,4-diol]
6 | 44 | Cc1ncnc2c1ccn2[C@@H]1O[C@H]([C@H](O)c2cc(F)cc(F)c2)[C@@H](O)[C@H]1O [Example 36, (2R,3S,4R,5R)-2-((R)-(3,5-difluorophenyl)(hydroxy)methyl)-5-(4-methyl-7H-pyrrolo[2,3-d]pyrimidin-7-yl)tetrahydrofuran-3,4-diol]
5 | 42 | Cc1ncnc2c1ccn2[C@@H]1O[C@H]([C@H](O)c2ccc(F)cc2)[C@@H](O)[C@H]1O [Example 38, (2R,3S,4R,5R)-2-((R)-(4-fluorophenyl)(hydroxy)methyl)-5-(4-methyl-7H-pyrrolo[2,3-d]pyrimidin-7-yl)tetrahydrofuran-3,4-diol]
52 | 3400 | Cc1ncnc2c1ccn2[C@@H]1O[C@H]([C@@H](C)O)[C@@H](O)[C@H]1O [Example 44, (2R,3S,4R,5R)-2-((R)-1-hydroxyethyl)-5-(4-methyl-7H-pyrrolo[2,3-d]pyrimidin-7-yl)tetrahydrofuran-3,4-diol]
5 | 18 | Cc1nc(N)nc2c1ccn2[C@@H]1O[C@H]([C@H](O)c2ccc(F)cc2)[C@@H](O)[C@H]1O [Example 64, (2R,3R,4S,5R)-2-(2-amino-4-methyl-7H-pyrrolo[2,3-d]pyrimidin-7-yl)-5-((R)-(4-fluorophenyl)(hydroxy)methyl)tetrahydrofuran-3,4-diol]
4 | 112 | Cc1ncnc2c1ccn2[C@@H]1O[C@H]([C@H](O)c2ccc(F)c(C#N)c2)[C@@H](O)[C@H]1O [Example 13]
114 | 2700 | CC[C@@H](O)[C@H]1O[C@@H](n2ccc3c(C)ncnc32)[C@H](O)[C@@H]1O [Example 40, (2R,3S,4R,5R)-2-((R)-1-hydroxypropyl)-5-(4-methyl-7H-pyrrolo[2,3-d]pyrimidin-7-yl)tetrahydrofuran-3,4-diol]
5 | 92 | O[C@@H]1[C@H](O)[C@@H]([C@H](O)c2ccc(F)c(F)c2)O[C@H]1n1ccc2cncnc21 [Example 117, (2R,3S,4R,5R)-2-((R)-(3,4-difluorophenyl)(hydroxy)methyl)-5-(7H-pyrrolo[2,3-d]pyrimidin-7-yl)tetrahydrofuran-3,4-diol]
1 | 3 | Nc1ncnc2c1ccn2[C@@H]1O[C@H]([C@H](O)c2ccc(Cl)c(F)c2)[C@@H](O)[C@H]1O [Example 88, (2R,3R,4S,5R)-2-(4-amino-7H-pyrrolo[2,3-d]pyrimidin-7-yl)-5-((R)-(4-chloro-3-fluorophenyl)(hydroxy)methyl)tetrahydrofuran-3,4-diol]
14 | 257 | Cc1ncnc2c1ccn2[C@@H]1O[C@H]([C@H](F)c2ccc(F)c(F)c2)[C@@H](O)[C@H]1O [Example 92, (2S,3S,4R,5R)-2-((R)-(3,4-difluorophenyl)fluoromethyl)-5-(4-methyl-7H-pyrrolo[2,3-d]pyrimidin-7-yl)tetrahydrofuran-3,4-diol]
7 | 322 | Nc1ncnc2c1c(I)cn2[C@@H]1O[C@H]([C@H](O)c2ccc(F)c(F)c2)[C@@H](O)[C@H]1O [Example 119, (2R,3R,4S,5R)-2-(4-amino-5-iodo-7H-pyrrolo[2,3-d]pyrimidin-7-yl)-5-((R)-(3,4-difluorophenyl)(hydroxy)methyl)tetrahydrofuran-3,4-diol]
5 | 1640 | N[C@H](c1ccc(Cl)c(F)c1)[C@H]1O[C@@H](n2ccc3cncnc32)[C@H](O)[C@@H]1O [Example 116, (2R,3S,4R,5R)-2-((R)-amino(4-chloro-3-fluorophenyl)methyl)-5-(7H-pyrrolo[2,3-d]pyrimidin-7-yl)tetrahydrofuran-3,4-diol]
18 | 211 | Cc1ncnc2c1ccn2[C@@H]1O[C@H]([C@H](O)c2ccccc2)[C@@H](O)[C@H]1O [Example 26, (2R,3S,4R,5R)-2-((R)-hydroxy(phenyl)methyl)-5-(4-methyl-7H-pyrrolo[2,3-d]pyrimidin-7-yl)tetrahydrofuran-3,4-diol]
13 | 323 | Nc1ncnc2c1c(F)cn2[C@@H]1O[C@H]([C@H](O)c2ccc(F)cn2)[C@@H](O)[C@H]1O [Example 83, (2R,3R,4S,5R)-2-(4-amino-5-fluoro-7H-pyrrolo[2,3-d]pyrimidin-7-yl)-5-((R)-(5-fluoropyridin-2-yl)(hydroxy)methyl)tetrahydrofuran-3,4-diol]
